Data published in article PMC11374673, “Discovery of isoquinoline sulfonamides as allosteric gyrase inhibitors with activity against fluoroquinolone-resistant bacteria” (Nature Chemistry, 2024).
“And” between values parts separate entries of the source, which are not always exact repeats. Equal values may be shown once. Read-outs that look alike come from different tables or passages of the source.

How the values were obtained:
E. coli W3110 = assay: MIC by broth microdilution; format: cell-based, Escherichia coli; details: for antimicrobial activity: relative to parent compound
Method in brief: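 Broth microdilution in CAMHB: twofold compound series inoculated with 100-fold-diluted bacteria from exponential growth (OD600 0.5, 37 °C); kanamycin 50 µg ml^−1 added for Keio collection strains. Overnight incubation, 37 °C, 600 r.p.m. shaking.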

HEK293T = assay: Cytotoxicity assay (MTT); format: cell-based, human; details: for MTT data (raw readout): HEK293T; for IC50: 24 h, MTT
Method in brief: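 HEK293T cells, maintained at 37 °C and 7% CO2 in Dulbecco’s modified Eagle medium with GlutaMax, antibiotics and serum, were plated in clear 96-well plates in 100 µl medium containing 1% fetal bovine serum and left 24 h to attach. After 24 h compound exposure, MTT (0.40 mg ml^−1) was added for 2 h. Formazan was dissolved in 100 µl DMSO and absorbance measured at 570 nm. Background-corrected IC50 values came from variable-slope non-linear fits.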

HepG2 = assay: Cytotoxicity assay (MTT); format: cell-based, human; details: for IC50: MTT, 24 h

O=C(O)c1cn(C2CC2)c2cc(N3CCNCC3)c(F)cc2c1=O [CIP, ciprofloxacin]
MIC (E. coli W3110; Escherichia coli, W3110): 7.8 ng/mL | MIC (E. coli W3110; Escherichia coli, W3110, read-out: MIC E. coli WT strain): 0.024 µM

O=S(=O)(NC[C@H]1CC[C@@H](c2ccc(-c3ccc(F)nc3)cc2)N1)c1cccc2cnccc12 [LEI-801]
MIC (E. coli W3110; Escherichia coli, W3110, WT, broth microdilution, read-out: MIC E. coli W3110): > 50 µM | MIC (E. coli W3110; WT, broth microdilution, listed as LEI-801 (99), read-out: MIC E. coli W3110): > 50 µM | antimicrobial activity (E. coli W3110; listed as 99): completely inactive | antimicrobial activity (E. coli W3110; listed as 99 (LEI-801)): inactive | MTT data (raw readout) (HEK293T; 0.023 uM, experiment n = 1, technical triplicates, listed as LEI-801 (99)): 1.090 and 1.041 and 1.057 | MTT data (raw readout) (HEK293T; 0.023 uM, experiment n = 2, technical triplicates, listed as LEI-801 (99)): 0.858 and 0.977 and 0.938 | MTT data (raw readout) (HEK293T; 0.068 uM, experiment n = 1, technical triplicates, listed as LEI-801 (99)): 1.154 and 1.082 and 1.072 | MTT data (raw readout) (HEK293T; 0.068 uM, experiment n = 2, technical triplicates, listed as LEI-801 (99)): 1.027 and 1.034 and 1.015 | MTT data (raw readout) (HEK293T; 0.21 uM, experiment n = 1, technical triplicates, listed as LEI-801 (99)): 1.127 and 1.121 and 1.094 | MTT data (raw readout) (HEK293T; 0.21 uM, experiment n = 2, technical triplicates, listed as LEI-801 (99)): 0.913 and 0.892 and 0.944 | MTT data (raw readout) (HEK293T; 0.62 uM, experiment n = 1, technical triplicates, listed as LEI-801 (99)): 1.141 and 1.092 and 0.930 | MTT data (raw readout) (HEK293T; 0.62 uM, experiment n = 2, technical triplicates, listed as LEI-801 (99)): 1.083 and 0.946 and 1.064 | MTT data (raw readout) (HEK293T; 1.85 uM, experiment n = 1, technical triplicates, listed as LEI-801 (99)): 1.167 and 1.005 and 0.915 | MTT data (raw readout) (HEK293T; 5.6 uM, experiment n = 1, technical triplicates, listed as LEI-801 (99)): 0.937 and 1.019 and 1.040 | MTT data (raw readout) (HEK293T; 5.6 uM, experiment n = 2, technical triplicates, listed as LEI-801 (99)): 1.075 and 0.764 and 0.931 | MTT data (raw readout) (HEK293T; 16.7 uM, experiment n = 1, technical triplicates, listed as LEI-801 (99)): 0.838 and 0.818 and 0.874 | MTT data (raw readout) (HEK293T; 16.7 uM, experiment n = 2, technical triplicates, listed as LEI-801 (99)): 0.745 and 0.746 and 0.735 | MTT data (raw readout) (HEK293T; 50 uM, experiment n = 1, technical triplicates, listed as LEI-801 (99)): 0.494 and 0.473 and 0.487 | MTT data (raw readout) (HEK293T; 50 uM, experiment n = 2, technical triplicates, listed as LEI-801 (99)): 0.506 and 0.491 and 0.495 | IC50 (HEK293T; Homo sapiens, HEK-293T): 51 µM | IC50 (HEK293T; listed as LEI-801 (99)): > 50 µM | MTT data (raw readout) (HepG2; HepG2, 0.023 uM, experiment n = 1, technical triplicates, listed as LEI-801 (99)): 0.358 and 0.291 and 0.289 | MTT data (raw readout) (HepG2; HepG2, 0.023 uM, experiment n = 2, technical triplicates, listed as LEI-801 (99)): 0.296 and 0.284 and 0.274 | MTT data (raw readout) (HepG2; HepG2, 0.068 uM, experiment n = 1, technical triplicates, listed as LEI-801 (99)): 0.356 and 0.307 and 0.313 | MTT data (raw readout) (HepG2; HepG2, 0.068 uM, experiment n = 2, technical triplicates, listed as LEI-801 (99)): 0.301 and 0.287 and 0.260 | MTT data (raw readout) (HepG2; HepG2, 0.21 uM, experiment n = 1, technical triplicates, listed as LEI-801 (99)): 0.330 and 0.315 and 0.323 | MTT data (raw readout) (HepG2; HepG2, 0.21 uM, experiment n = 2, technical triplicates, listed as LEI-801 (99)): 0.350 and 0.289 and 0.265 | MTT data (raw readout) (HepG2; HepG2, 0.62 uM, experiment n = 1, technical triplicates, listed as LEI-801 (99)): 0.417 and 0.319 and 0.320 | MTT data (raw readout) (HepG2; HepG2, 0.62 uM, experiment n = 2, technical triplicates, listed as LEI-801 (99)): 0.301 and 0.282 and 0.253 | MTT data (raw readout) (HepG2; HepG2, 1.85 uM, experiment n = 1, technical triplicates, listed as LEI-801 (99)): 0.361 and 0.335 and 0.354 | MTT data (raw readout) (HepG2; HepG2, 1.85 uM, experiment n = 2, technical triplicates, listed as LEI-801 (99)): 0.263 and 0.269 and 0.244 | MTT data (raw readout) (HepG2; HepG2, 5.6 uM, experiment n = 1, technical triplicates, listed as LEI-801 (99)): 0.370 and 0.351 and 0.360 | MTT data (raw readout) (HepG2; HepG2, 5.6 uM, experiment n = 2, technical triplicates, listed as LEI-801 (99)): 0.293 and 0.267 and 0.296 | MTT data (raw readout) (HepG2; HepG2, 16.7 uM, experiment n = 1, technical triplicates, listed as LEI-801 (99)): 0.376 and 0.357 and 0.431 | MTT data (raw readout) (HepG2; HepG2, 16.7 uM, experiment n = 2, technical triplicates, listed as LEI-801 (99)): 0.300 and 0.252 and 0.259 | MTT data (raw readout) (HepG2; HepG2, 50 uM, experiment n = 1, technical triplicates, listed as LEI-801 (99)): 0.327 and 0.318 and 0.307 | MTT data (raw readout) (HepG2; HepG2, 50 uM, experiment n = 2, technical triplicates, listed as LEI-801 (99)): 0.232 and 0.220 and 0.225 | IC50 (HepG2; Homo sapiens, HepG2, 24 h): > 100 µM | IC50 (HepG2; listed as LEI-801 (99)): > 50 µM
